From patent publication US12583825B2, “Benzo[h]quinazolin-4-amine and thieno[3,2-h]quinazolin-4-amine derivatives for the treatment of cancer” (Redona Therapeutics, Inc., priority 2020, dated 2026)

How the values were obtained:
recombinant human CLK3 = target: T1, recombinant human CLK3 (Homo sapiens, UniProt P49761); test: CLK3 kinase assay (LANCE Ultra); type: biochemical; details: 0.5 nM CLK3, 300 μM ATP, 3 hours at 30° C.
T1 construct: purchased Thermo Fisher Scientific PV3826
Experimental: CLK3 kinase activity was measured using the LANCE® Ultra technology (PerkinElmer) essentially as recommended by the supplier. Briefly, 2.5 μL of test sample at 4× the desired final concentration in 4% DMSO were dispensed into white, low volume, round bottom, 384 well plates (Corning, cat. no. 4512). 5 μL of a mixture containing recombinant human CLK3 (Thermo Fisher Scientific, cat. no. PV3826) and the labeled peptide substrate ULight™-CREBtide (PerkinElmer, cat. no. TRF0107) prepared in 1.33× kinase buffer (Thermo Fisher Scientific, cat. no. PV3189) were then added. Finally, the reactions were started by adding 2.5 μL of a 4× solution of ATP in kinase buffer. The plates were sealed with adhesive foils and incubated for 3 hours at 30° C. in the dark. The final concentrations of CLK3, ULight™—CREBtide, and ATP were 0.5 nM, 50 nM, and 300 μM, respectively. 5 μL of 40 mM EDTA were then added to terminate the reactions. The Eu-anti-phospho-CREB antibody (PerkinElmer, cat. no. TRF0200) diluted in LANCE® detection buffer (PerkinElmer, cat. no. CR97) was then added to a final concentration of 2 nM and the reactions were incubated for 1 hour at room temperature in the dark. The signals were measured using a Synergy 4 reader (BioTek) with a 320/80 nm filter for the excitation and 620/10 nm and 665/8 nm filters for the donor and acceptor emission, respectively. […] IC50 values were calculated by fitting the concentration-response data to a sigmoidal 4-parameter logistic model.

MDA-MB-231 cells = test: MDA-MB-231 proliferation assay; type: cell-based; details: Homo sapiens, 72 hours, YO-PRO-1 readout
Experimental: MDA-MB-231 Proliferation Assay
MDA-MB-231 cells were cultivated in DMEM High Glucose (4.5 g/L) with L-Glutamine (BioConcept, cat. no. 1-26F03-I) supplemented with 1% Na-pyruvate (Sigma, cat. no. S8636), 1% Penicillin-Streptomycin (BioConcept, cat. no. 4-01F00H), and 10% FBS (Sigma, cat. no. F9665) using standard techniques. Cells were seeded in black, clear-bottom 384 well plates for tissue culture (Greiner Bio-One, cat. no. 781091) at a density of 750 cells per well in 20 μL medium and the plates were incubated overnight at 37° C. with 5% CO2 prior to treatment. Experimental compounds were serially diluted in DMSO to 200× the desired final concentrations. The solutions were then diluted 1:40 with culture medium and 5 μL aliquots were mixed into the wells containing the cells. The final concentration of DMSO was 0.5%. The plates were incubated for 72 hours and cell numbers were then measured using YO-PRO™-1 Iodide (ThermoFisher Scientific, cat. no. Y3603) essentially as recommended by the manufacturer. […] The plates were incubated at room temperature in the dark for 30 minutes. Fluorescence intensity signals were then measured on a Synergy 4 reader (BioTek) using 485/20 nm and 530/25 nm filters for the excitation and emission, respectively. Relative proliferation values were calculated by normalizing the raw data using DMSO-treated cells (100% proliferation) and the signals obtained from cells that were evaluated at the time of compound addition (0% proliferation). The concentration-response data were fitted to a sigmoidal 4-parameter logistic model with the maximum constrained to 100%.

T1 sequence (P49761 whole entry): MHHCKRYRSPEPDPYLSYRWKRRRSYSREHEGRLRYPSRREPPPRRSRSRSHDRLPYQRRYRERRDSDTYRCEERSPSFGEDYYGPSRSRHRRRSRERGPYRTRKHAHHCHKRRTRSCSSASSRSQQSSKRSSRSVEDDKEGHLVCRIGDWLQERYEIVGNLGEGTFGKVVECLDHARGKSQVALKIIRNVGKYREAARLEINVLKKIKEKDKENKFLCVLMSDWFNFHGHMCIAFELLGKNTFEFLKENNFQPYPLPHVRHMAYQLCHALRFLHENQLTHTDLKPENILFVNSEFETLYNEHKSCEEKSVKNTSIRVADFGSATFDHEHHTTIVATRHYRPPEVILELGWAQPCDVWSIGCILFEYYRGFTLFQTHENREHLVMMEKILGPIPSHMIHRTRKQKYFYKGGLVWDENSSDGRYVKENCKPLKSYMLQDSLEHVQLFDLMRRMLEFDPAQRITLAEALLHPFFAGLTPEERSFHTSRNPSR

| Structure (SMILES) | IC50 (recombinant human CLK3) [nM] | GI50 (MDA-MB-231 cells) [nM] |
| --- | --- | --- |
| CC1(C)/C(=N/OCCC#N)c2cc(O[C@H]3CC[C@H](N)CC3)ccc2-c2ncnc(N)c21 [Example 55, 3-[(Z)-[4-amino-8-(trans-4-aminocyclohexoxy)-5,5-dimethyl-benzo[h]quinazolin-6-ylidene]amino]oxypropanenitrile] | 15.6 | 169 |
| CN1C[C@@H](CO/N=C2\c3cc(O[C@H]4CC[C@H](N)CC4)ccc3-c3ncnc(N)c3C2(C)C)OC1=O [Example 56, (5S)-5-[[(Z)-[4-amino-8-(trans-4-aminocyclohexoxy)-5,5-dimethyl-benzo[h]quinazolin-6-ylidene]amino]oxymethyl]-3-methyl-oxazolidin-2-one] | < 1.5 | 332 |
| CO/N=C1\c2cc(O[C@@H]3CC[C@@H](N)[C@@H](F)C3)ccc2-c2ncnc(N)c2C1(C)C [Example 57, (6Z)-6-methoxyimino-5,5-dimethyl-8-[-(1R,3S,4R)-4-amino-3-fluoro-cyclohexoxy]benzo[h]quinazolin-4-amine] | 2.76 | 207 |
| COc1ccc2c(c1)/C(=N\OCCN)C(C)(C)c1c(N)ncnc1-2 [Example 58, (6Z)-6-(2-aminoethoxyimino)-8-methoxy-5,5-dimethyl-benzo[h]quinazolin-4-amine] | 90.4 | > 2000 |
| COc1ccc2c(c1)/C(=N\OCCCN)C(C)(C)c1c(N)ncnc1-2 [Example 59, (6Z)-6-(3-aminopropoxyimino)-8-methoxy-5,5-dimethyl-benzo[h]quinazolin-4-amine] | 265 | > 2000 |
| CC1(C)/C(=N\OCCC#N)c2cc(O[C@H]3CC[C@H](N)CC3)ccc2-c2ncnc(N)c21 [Example 60, 3-[(E)-[4-amino-8-(trans-4-aminocyclohexoxy)-5,5-dimethyl-benzo[h]quinazolin-6-ylidene]amino]oxypropanenitrile] | 116 | > 2000 |
| CO/N=C1\c2cc(O)ccc2-c2ncnc(N)c2C1(C)C [Example 61, (6Z)-4-amino-6-methoxyimino-5,5-dimethyl-benzo[h]quinazolin-8-ol] | 53.6 | > 2000 |
| CO/N=C1\c2cc(OC3CCNCC3)ccc2-c2ncnc(N)c2C1(C)C [Example 66, (6Z)-6-methoxyimino-5,5-dimethyl-8-(4-piperidyloxy)benzo[h]quinazolin-4-amine] | 13 | 1750 |
| COc1ccc2c(c1)/C(=N\OC[C@@H]1CNC(=O)C1)C(C)(C)c1c(N)ncnc1-2 [Example 72, (4S)-4-[[(Z)-(4-amino-8-methoxy-5,5-dimethyl-benzo[h]quinazolin-6-ylidene)amino]oxymethyl]pyrrolidin-2-one] | 79.3 | > 2000 |
| COc1ccc2c(c1)/C(=N\OC[C@H]1CNC(=O)C1)C(C)(C)c1c(N)ncnc1-2 [Example 73, (4R)-4-[[(Z)-(4-amino-8-methoxy-5,5-dimethyl-benzo[h]quinazolin-6-ylidene)amino]oxymethyl]pyrrolidin-2-one] | 385 | > 2000 |
| CO/N=C1\c2cc(C[C@H]3CC[C@@H](N)CC3)ccc2-c2ncnc(N)c2C1(C)C [Example 75, (6Z)-8-[(cis-4-aminocyclohexyl)methyl]-6-methoxyimino-5,5-dimethyl-benzo[h]quinazolin-4-amine] | 3.4 | 472 |
| COc1ccc2c(c1)/C(=N\OC[C@H]1CC(=O)N(C)C1)C(C)(C)c1c(N)ncnc1-2 [Example 76, (4S)-4-[[(Z)-(4-amino-8-methoxy-5,5-dimethyl-benzo[h]quinazolin-6-ylidene)amino]oxymethyl]-1-methyl-pyrrolidin-2-one] | < 41 | > 2000 |
| CO/N=C1\c2cc(OC)cc(F)c2-c2ncnc(N)c2C1(C)C [Example 77, (6Z)-10-fluoro-8-methoxy-6-methoxyimino-5,5-dimethyl-benzo[h]quinazolin-4-amine] | 84.8 | > 2000 |
| C[C@@H](O)CO/N=C1\c2cc(O[C@H]3CC[C@H](N)CC3)ccc2-c2ncnc(N)c2C1(C)C [Example 78, (2R)-1-[(Z)-[4-amino-8-(trans-4-aminocyclohexoxy)-5,5-dimethyl-benzo[h]quinazolin-6-ylidene]amino]oxypropan-2-ol] | 66.3 | > 2000 |
| COCCO/N=C1\c2cc(Br)ccc2-c2ncnc(N)c2C1(C)C [Example 80, (6Z)-8-bromo-6-(2-methoxyethoxyimino)-5,5-dimethyl-benzo[h]quinazolin-4-amine] | 51.5 | > 2000 |
| CC1(C)/C(=N/OCCC#N)c2cc(Br)ccc2-c2ncnc(N)c21 [Example 81, 3-[(Z)-(4-amino-8-bromo-5,5-dimethyl-benzo[h]quinazolin-6-ylidene)amino]oxypropanenitrile] | 15.8 | > 2000 |
| CC1(C)/C(=N/O)c2cc(Br)ccc2-c2ncnc(N)c21 [Example 84, (Z)-4-amino-8-bromo-5,5-dimethyl-benzo[h]quinazolin-6-one oxime] | 10.6 | > 2000 |
| CC1(C)/C(=N\O)c2cc(Br)ccc2-c2ncnc(N)c21 [Example 85, (E)-4-amino-8-bromo-5,5-dimethyl-benzo[h]quinazolin-6-one oxime] | 125 | > 2000 |
| CC1(C)/C(=N/OCCO)c2cc(Br)ccc2-c2ncnc(N)c21 [Example 86, 2-[(Z)-(4-amino-8-bromo-5,5-dimethyl-benzo[h]quinazolin-6-ylidene)amino]oxyethanol] | 63 | > 2000 |
| CC1(C)/C(=N/OC[C@@H]2CNC(=O)O2)c2cc(C#N)ccc2-c2ncnc(N)c21 [Example 92, (6Z)-4-amino-5,5-dimethyl-6-[[(5S)-2-oxooxazolidin-5-yl]methoxyimino]benzo[h]quinazoline-8-carbonitrile] | 142 | > 2000 |
| CC1(C)/C(=N/OC[C@@H]2CNC(=O)O2)c2cc(OCCO)ccc2-c2ncnc(N)c21 [Example 94, (5S)-5-[[(Z)-[4-amino-8-(2-hydroxyethoxy)-5,5-dimethyl-benzo[h]quinazolin-6-ylidene]amino]oxymethyl]oxazolidin-2-one] | 18.6 | > 2000 |
| COCCO/N=C1\c2cc(N[C@H]3CC[C@H](N)CC3)ccc2-c2ncnc(N)c2C1(C)C [Example 95, (6Z)—N8-(trans-4-aminocyclohexyl)-6-(2-methoxyethoxyimino)-5,5-dimethyl-benzo[h]quinazoline-4,8-diamine] | 62.5 | 1040 |
| COCCO/N=C1\c2cc(N[C@H]3CC[C@@H](N)CC3)ccc2-c2ncnc(N)c2C1(C)C [Example 96, (6Z)—N8-(cis-4-aminocyclohexyl)-6-(2-methoxyethoxyimino)-5,5-dimethyl-benzo[h]quinazoline-4,8-diamine] | 43.6 | 670 |
| CC(=O)c1ccc2c(c1)/C(=N\OC[C@@H]1CNC(=O)O1)C(C)(C)c1c(N)ncnc1-2 [Example 98, (5S)-5-[[(Z)-(8-acetyl-4-amino-5,5-dimethyl-benzo[h]quinazolin-6-ylidene)amino]oxymethyl]oxazolidin-2-one] | 26 | > 2000 |
| COCCO/N=C1\c2cc(O[C@H]3CC[C@@H](N)CC3)ccc2-c2ncnc(N)c2C12CCCC2 [Example 100, (6Z)-8-(cis-4-aminocyclohexoxy)-6-(2-methoxyethoxyimino)spiro[benzo[h]quinazoline-5,1′-cyclopentane]-4-amine] | 3.7 | 10.5 |
| COCCO/N=C1\c2cc(O[C@H]3CC[C@@](C)(N)CC3)ccc2-c2ncnc(N)c2C1(C)C [Example 103, (6Z)-8-(cis-4-amino-4-methyl-cyclohexoxy)-6-(2-methoxyethoxyimino)-5,5-dimethyl-benzo[h]quinazoline-4-amine] | 28.3 | 184 |
